Experimental data as given in patent publication US20100311714A1, “1H-IMIDAZO[4,5-c]QUINOLINONE COMPOUNDS” (priority 2009, published 2010).
≈ marks a conversion by molar mass, not a printed value.

Legend:
[1] = High-throughput equilibrium solubility at pH 6.8; format: physicochemical; conditions: pH 6.8, aqueous buffer, thermodynamic from solid; read-out: HT-Eq Sol/pH 6.8
Text: (§1) The physicochemical properties of relevance for the absorption of the compound, such as the solubility and the membrane permeability, especially at a pH close to neutral pH can be measured using the procedure as described by L. ZHOU et al. in JOURNAL OF PHARMACEUTICAL SCIENCES, VOL. 96, NO. 11, p. 3052-3071 (2007) for the solubility at pH 6.8 and the procedure as described by F. Wohnsland and B. Faller in Journal of Medicinal Chemistry Vol 44, p. 923-930 (2001) for the Parallel Artificial Membrane Permeability Assay (PAMPA) at pH 6.8.

[2] = test system: PKB Ser473 phosphorylation in Rat1-myr-HA-p110 alpha cells; experiment: Reverse protein array, PKB Ser473 phosphorylation in Rat1-myr-HA-p110 alpha cells; format: cell-based; conditions: Rattus norvegicus, 0.5 h, 30 minutes compound incubation, read-out: p-PKB/IC50_alpha
Protocol: (§2) No. 15140-114) and 10 μg/ml Puromycine (Sigma, cat. No. P9620).
(§3) The Rat1-myr-HA-p110 alpha, beta and delta cells were trypsinized and counted with a CASY TT cell counter (Schärfe System GmbH, Reutlingen Germany). The cells were diluted in fresh DMEM complete medium and 3×10^4 cells/150 μl/well seeded in 96-well TPP-tissue culture plates (TPP, cat. No. 92096). The plates were incubated at 37° C. and 5% CO2 under humidified condition for at least 20 h. Compound of formula I working solutions were prepared freshly as serial 8 step dilutions (vol/vol) in DMSO on the day of the experiment. The working solutions were further diluted 1/500 in cell culture medium to get final compound concentrations of 10, 3.333, 1.111, 0.370, 0.123, 0.041, 0.014, 0.005 μM. The final DMSO concentration was kept constant at 0.2%. cell culture medium containing 0.2% DMSO was used as vehicle treatment control. Post incubation, the cells were treated with the serial compound dilution. 50 μl of the compound medium mixture was added to the wells containing cells and 150 μl DMEM medium and incubated for 30 minutes (37° C., 5% CO2). After 30 minutes of incubation, the medium mixture was quickly removed by aspiration. For cell lysis, a mixture of 10% CLB1 CeLyA lysis buffer (Zeptosens, cat. No. 9000), 90% CSBL1 CeLyA spotting buffer (Zeptosens, cat. No. 9020) was freshly prepared and supplemented with 1% Octyl β-D-glucopyranoside (SIGMA, cat. No. 08001-5G) and 1 mM Na-Orthovanadate (Sigma, cat No. S-6508). 50 μl of the described lysis buffer mix was added to each well, followed by 10 minutes of incubation on ice. After an additional freeze-thaw cycle, another 50 μl of the lysis buffer mix without Octyl β-D-glucopyranoside was added to the wells, and 90 μl of the cell lysate was transferred to a 96-well V-bottom plate (Fisher Scientific, cat. No. 6067Y), followed by a centrifugation step (5 min, 1500 rpm at 19° C. in an Eppendorf 5810R centrifuge) to remove the unlysed cell debris.
(§4) The samples were spotted onto ZeptoMARK® PWG protein microarray chips (Zeptosens, Witterswil, Switzerland) with the piezoelectric microdispense-based, non-contact Nano-Plotter 2.1 (GeSiM, Grosserkmannsdorf, Germany). Each sample was spotted at 4 different sample concentrations (d1=100%, d2=75%, d3=50%, d4=25%) by diluting the cell lysate with the corresponding volume of lysis buffer mix. After spotting the ZeptoMARK® protein microarrays, the chips are incubated for 1 hour at 37° C. To receive a uniform blocking result, the CeLyA blocking buffer BB1 (Zeptosens, cat. No. 9040) is administered via an ultrasonic nebulizer. After 20 minutes of blocking the chips are extensively rinsed with deionized water (Milli-Q quality, 18MΩ×cm) and dried in a nitrogen air flow.
(§5) After the sample spotting and blocking procedure, the ZeptoMARK® chips were transferred to the ZeptoCARRIER (Zeptosens, cat. No. 1100), whose six flow cells individually address the six arrays on a chip, and washed twice with 200 μl CAB1 CeLyA assay buffer (Zeptosens, cat. No. 9032). The assay buffer was then aspirated and each compartment incubated with 100 μl of the primary target antibody (pAkt Ser473; CST#9271) at RT over night. Post incubation, the primary antibody was removed, the arrays washed twice with CAB1 buffer and further incubated with 100 μl of Alexa fluor 647-labeled anti rabbit IgG Fab fragments (Invitrogen; #Z25305) for one hour at RT in the dark. After incubation, the arrays were washed twice with 200 μl CAB1 buffer. The fluorescence of the target-bound Fab fragments is read out on the ZeptoReader (Zeptosens, Witterswil, Switzerland) using a laser (excitation wavelength 635 nm) and a CCD camera. The fluorescence signal was assessed with exposure times of 1, 3, 5 and 10 seconds, depending on the intensity of the signal. The resulting four images taken per array are stored as 16-bit TIF files. […]

[3] = test system: PKB Ser473 phosphorylation in Rat1-myr-HA-p110 delta cells; experiment: Reverse protein array, PKB Ser473 phosphorylation in Rat1-myr-HA-p110 delta cells; format: cell-based; conditions: Rattus norvegicus, 0.5 h, 30 minutes compound incubation, read-out: p-PKB/IC50_delta
Protocol: as §2, §3, §4, §5

[4] = test system: PKB Ser473 phosphorylation in Rat1-myr-HA-p110 beta cells; experiment: Reverse protein array, PKB Ser473 phosphorylation in Rat1-myr-HA-p110 beta cells; format: cell-based; conditions: Rattus norvegicus, 0.5 h, 30 minutes compound incubation, read-out: p-PKB/IC50_beta
Protocol: as §2, §3, §4, §5

[5] = Parallel Artificial Membrane Permeability Assay (PAMPA) at pH 6.8; format: physicochemical
Text: as §1
The following permeability log Pe was measured for compound of formula (I) as exemplified below: […]

[6] = test system: S6 Ribosomal Protein phosphorylation Ser235/236 in TSC1 null mouse embryo fibroblast (MEF) cells; experiment: Reverse protein array, S6 Ribosomal Protein phosphorylation in TSC1 null MEF cells; format: cell-based; conditions: 1 h, TSC1-/- MEFs, 60 minutes, read-out: p-S6 IC50
Protocol: TSC1−/− MEFs cells (provided by D. Kwiatkowski), were cultivated in Dulbecco's modified Eagle's medium (DMEM high Glucose, GIBCO, cat. No. 41956-039) supplemented with 10% heat inactivated fetal bovine calf serum (Amimed, cat. No. 2-01F16-I), 1% L-Glutamine (Invitrogen, cat. No. 25030-02), 1% penicillin-streptomycin (GIBCO, cat. No. 15140-114) at 37° C. in a 5% CO2 and 95% relative humidity atmosphere incubator.
The TSC1−/− cells were trypsinized and counted with a CASY TT cell counter (Schärfe System GmbH, Reutlingen Germany). The cells were diluted in fresh DMEM complete medium and 0.75×10^4 cells/150 μl/well seeded in 96-well TPP-tissue culture plates (TPP, cat. No. 92096). The plates were incubated at 37° C. and 5% CO2 under humidified condition for at least 20 h. Working solutions were prepared freshly as serial 8 step dilutions (vol/vol) in DMSO on the day of the experiment. The working solutions were further diluted 1/5000 in cell culture medium to get final compound concentrations of […]. The final DMSO concentration was kept constant at 0.02%. cell culture medium containing 0.02% DMSO was used as vehicle treatment control. Post incubation, the cells were treated with the serial compound dilution. 50 μl of the compound medium mixture was added to the wells containing cells and 150 μl DMEM medium and incubated for 60 minutes (37° C., 5% CO2). After 60 minutes of incubation, the medium mixture was quickly removed by aspiration. For cell lysis, a mixture of 10% CLB1 CeLyA lysis buffer (Zeptosens, cat. No. 9000), 90% CSBL1 CeLyA spotting buffer (Zeptosens, cat. No. 9020) was freshly prepared and supplemented with 1% Octyl β-D-glucopyranoside (SIGMA, cat. No. 08001-5G) and 1 mM Na-Orthovanadate (Sigma, cat No. S-6508). 50 μl of the described lysis buffer mix was added to each well, followed by 10 minutes of incubation on ice. After an additional freeze-thaw cycle, another 50 μl of the lysis buffer mix without Octyl β-D-glucopyranoside was added to the wells, and 90 μl of the cell lysate was transferred to a 96-well V-bottom plate (Fisher Scientific, cat. No. 6067Y), followed by a centrifugation step (5 min, 1500 rpm at 19° C. in an Eppendorf 5810R centrifuge) to remove the unlysed cell debris.
The spotting of the chips follows the previous described method.
The signal detection and the data analysis follows the previous described method using the pS6 ribosomal protein Ser235/236 (CST, cat. No. #2211) as a primary antibody.

solubility thermodynamic [1] [µg/mL] | IC50 [2] [nM] | IC50 [3] [nM] | IC50 [4] [nM] | HT-perm/logPe pH6.8 [5] | HT-Perm logPe pH6.8 [5] | SMILES | IC50 [6] [nM]
21 (≈ 40.3 µM) | 6.5 | 52.9 | 9.39 |  |  | COc1nc(N2CCNCC2)ccc1-n1c(=O)n(C)c2cnc3ccc(-c4cnc5c(ccn5C)c4)cc3c21 [Example 9.3, 1-(2-Methoxy-6-piperazin-1-yl-pyridin-3-yl)-3-methyl-8-(1-methyl-1H-pyrrolo[2,3-b]pyridin-5-yl)-1,3-dihydro-imidazo[4,5-c]quinolin-2-one] | 
> 441 | 85.6 | 803 | 491 | −4.8 |  | COCCOc1cncc(-c2ccc3ncc4c(c3c2)n(-c2cccnc2C)c(=O)n4C)c1 [Example 2.17, 8-[5-(2-Methoxy-ethoxy)-pyridin-3-yl]-3-methyl-1-(2-methyl-pyridin-3-yl)-1,3-dihydro-imidazo[4,5-c]quinolin-2-one] | 
3 (≈ 6.7 µM) | 7.8 | 12.2 | 7 |  | −3.5 | CNc1ncc(-c2ccc3ncc4c(c3c2)n(-c2ccc(OC)nc2Cl)c(=O)n4C)cn1 [Example 18.2, 1-(2-Chloro-6-methoxy-pyridin-3-yl)-3-methyl-8-(2-methylamino-pyrimidin-5-yl)-1,3-dihydro-imidazo[4,5-c]quinolin-2-one] | 1
14 (≈ 34.4 µM) | 58.5 | 109 | 74.1 | −5.0 |  | Cc1cccnc1-n1c(=O)n(C)c2cnc3ccc(-c4cnc5[nH]ccc5c4)cc3c21 [Example 3.2, 3-Methyl-1-(3-methyl-pyridin-2-yl)-8-(1H-pyrrolo[2,3-b]pyridin-5-yl)-1,3-dihydro-imidazo[4,5-c]quinolin-2-one] | 
2 (≈ 4.87 µM) | 167 | 894 | 300 | −3.8 |  | Cc1ccncc1-n1c(=O)n(C)c2cnc3ccc(-c4ccc(N(C)C)nc4)cc3c21 [Example 4.4, 8-(6-Dimethylamino-pyridin-3-yl)-3-methyl-1-(4-methyl-pyridin-3-yl)-1,3-dihydro-imidazo[4,5-c]quinolin-2-one] | 
